Values joined by “and” are separate entries in the source; they are usually repeats but may differ in a detail not shown here. Equal values may be shown once. Read-outs that look alike come from different tables or passages of the source.
What was measured:
Ae. albopictus [1] = assay: Green house assay, biphasic ADS; assay type: in vivo, Aedes albopictus
Procedure: (§1) Larval bioassays for pyriproxyfen were conducted in adult emergence units (450 ml plastic Deli containers lid on) under the standard laboratory conditions as described above under the heading, Mosquito colony and maintenance. Each container received twenty early 3rd instar Ae. albopictus in 200 ml sample water. Larvae were inoculated gently using dropper before placing the lid on. Five slots (4 cm each) were cut into the lid with a clean blade for aeration. Larval food (30 mg yeast/L) was provided twice a week which was freshly prepared every time. An additional lab control group was setup in triplicate using […] water. The bioassays were conducted in the sequence of lab control and treatment to minimize the chance of contamination. Water lost due to the evaporation during bioassay was replenished. Adult emergence and pupal mortality were accessed after there was no live lava or pupa in the water. Incomplete emergence or adult with attached exuvia was recorded as pupal death. If lab control had mortality higher than 20% in larval or pupal stages, results were discarded and the experiment was repeated. The experiments were conducted under environmental conditions of 26-28° C., 60-75% RH and LD 16:8 h.
Green house with 2 bays (8×5×2.5 m each) was used for the semi-field assay. One ADS was positioned in the center of each bay and 6 Deli cups (450 mL, black painted from outside) containing 250 mL water each were setup as shown in FIG. 5 and 10% sugar solution was provided in a plastic cup with cotton wick. In each bay, 100 gravid mosquitoes (2 days post blood feeding) were released after the setup of ADS and oviposition containers. The containers were collected and sent for lab bioassay as described above after the 5 day experiment. […] The temperature of 22-30° C. and relative humidity of 45-70% were recorded during the experiment. […]
Efficacy of pyriproxyfen was expressed as mean + standard error % of pupal mortality, which was corrected with control using Abbott's formula (Abbott W. S. (1925) J Econ Entomol; 18: 265-267). […]

Ae. aegypti adults = details: pyriproxyfen dusted plastic containers, public cemetery; cited from earlier work
[2] = tested on: 3rd instar Ae. albopictus; assay: Room trial (31.1 m^3), single-phase station, larval bioassay; assay type: in vivo, Aedes albopictus
Procedure: In the room trial, the test arena was scaled-up to a larger area with dimensions of 2.1 (W)×2.6 (H)×5.7 (L) m (31.1 m^3). A station was placed in the center of the room and ovicups with oak infusion and ovistrips were positioned at each corner 30 cm from the walls. Fifty gravid females were introduced for a five day test. The ovistrips and eggs were discarded and the water from each container was tested for insecticidal activity by larval bioassay, with four additional untreated cups as controls. Environmental conditions of 26-28° C., 60-75% RH, and 16L:8D photoperiod. Inhibition of emergence in the cage and room trials was analyzed against their respective controls with a t-test (P≤0.05).
(§2) All insecticidal activity tests were conducted in adult emergence units—450 ml plastic containers with a screen-covered lid and 200 ml of water (water lost via evaporation was replaced before assay). Each container held twenty 3rd instar Ae. albopictus. Test containers were incubated at 26° C. and 16L:8D photoperiod. At 2-day intervals, ground rat chow (30 mg/L) was provided as food, water lost due to evaporation was replenished, dead and emerged individuals were removed, and successful adult emergence was recorded. Incomplete emergence or adults with attached exuviae were recorded as dead.

Ae. albopictus [3] = assay: Attachment and persistence of IGR formulations assay, biphasic ADS (residue analysis and larval bioassay); assay type: in vivo, Aedes albopictus
Excerpt: A biphasic autodissemination station (ADS) was developed to enhance attraction and contamination of gravid mosquitoes based on the previous version as described in the prior examples with modifications on the transfer chamber, which provided the attracted gravid mosquitoes a unidirectional path and biphasic formulations. The ADS consists of two main parts comprising of a water reservoir at the bottom (adapted from previous version), above which was a transfer chamber with a unidirectional cone inserted in the transfer chamber (FIGS. 12, A & B). The reservoir could hold 600 mL water, which contains dried shredded oak leaves and other materials producing attractants to the gravid mosquitoes. There were overflow protection holes located in the upper part of the reservoir as described in the previous examples. The transfer chamber was constructed with a cardboard mailing tube (101.5×155 mm; Office Depot, N.J. USA), a cotton mesh fabric (39 openings/cm^2) secured within the chamber base by hot glue, a vertical fabric band [43] (20 mm width) glued on top portion inside the transfer chamber and a horizontal flat ring (20 mm width) mounted on the top of the chamber (FIG. 12, B) to provide the base for powder band [46]. […] The spacer size was determined by preliminary study in which the gap size allowed maximum contamination of mosquitoes and minimum number of mosquitoes trapped. […]

Ae. albopictus [4] = assay: Larvicidal LC50 of pyriproxyfen; details: unpublished data
gravid female = assay: Serial transfer study, biphasic ADS; assay type: in vivo; details: right after it exited the ADS
Aedes aegypti = details: cited from earlier work
Ae. albopictus [5] = details: reported as low as; Gaugler 2012, Sihuincha 2005; cited from earlier work
[6] = tested on: 3rd instar Ae. albopictus; assay: Cage experiment: transfer from females to larval habitat, larval bioassay; assay type: in vivo, Aedes albopictus; details: 2.2 m^3 cage, 50 gravid females, 5 days, all 36 ovicups; powder formulation on transfer mesh
Procedure: In the cage experiment, an autodissemination station equipped with a pyriproxyfen-treated transfer mesh and 450 ml of oak leaf infusion water was centered in a cubic 2.2 m^3 cage. A 360 ml capacity plastic cup was placed in each cage corner 15 cm from the walls. Each of the four cups was filled with 200 ml tap water and oviposition paper strips aligned as described above. Controls used a station with an untreated transfer mesh. Fifty gravid females were then introduced into the cage. After five days, the test was terminated, oviposition papers and eggs discarded, and containers were removed and the water assessed for pyriproxyfen transfer by larval bioassay (see ‘insecticide bioassays’ below). There were three treatment and one control cage per experiment and the experiment was repeated three times, providing a total of 36 test and 12 control ovicups for bioassay. […]
as §2, with “Each container held twenty 3rd instar Ae. albopictus. Test containers were incubated at 26° C. and 16L:8D photoperiod.” left out

[7] = tested on: 3rd instar Ae. albopictus; assay: Venereal transfer from contaminated males to females, larval bioassay; assay type: in vivo, Aedes albopictus; details: venereally acquired pyriproxyfen transferred to water-holding containers
Procedure: This experiment determined whether contaminated mosquitoes could transfer pyriproxyfen to uncontaminated individuals via mating behaviors. To ensure virginity, pupae were individually transferred to 50 ml centrifuge tubes until emergence, and then caged by gender before testing 5-7 days post-emergence. Adult males were exposed to pyriproxyfen-treated filter paper (8×10 cm Whatman No. 1) lining a 50 ml test tube. The paper was coated with 1.5 ml of corn oil as a sticker, blotted to remove excess oil, and then dusted with our pyriproxyfen powder formulation at 0.26 mg/cm of a.i. After ten minutes of exposure, males were transferred from the tube by aspirator to mating containers (450 ml capacity, 7.5 cm depth) covered with mosquito-proof mesh, and allowed to mate with uncontaminated females in pairs. […]
as §2, with “Each container held twenty 3rd instar Ae. albopictus. Test containers were incubated at 26° C. and 16L:8D photoperiod.” left out

gravid mosquitoes = assay: Field studies, biphasic ADS; assay type: in vivo
container mosquitoes = details: modified sticky trap dusted with manually grained 5% pyriproxyfen powder; cited from earlier work
Ae. albopictus [8] = assay: Room assay (31 m^3), biphasic dual treatment ADS; assay type: in vivo, Aedes albopictus
Procedure: as §1
The test area was scaled up to a larger room (31 m^3) measuring 2.1 m in width, 5.7 m in length and 2.6 m in height. A station was placed in the center of the room and 10 Deli cups (450 mL, black painted from outside) containing 250 ml water were positioned 30 cm from the walls along each side of the room. Fifty gravid females were introduced for a 5-day test. The experiment was conducted under environmental conditions of 26-28° C., 60-75% RH and LD 16:8 h. The cups then were tested for pyriproxyfen activity using larval bioassay as described above. Ten additional untreated cups were included as controls. The pupal mortality in the room trials was analyzed against their respective controls with a t-test (P≤0.05).

Q: What does the source list for CC(COc1ccc(Oc2ccccc2)cc1)Oc1ccccn1 (stereo not drawn) [pyriproxyfen, 2-[1-methyl-2-(4-phenoxyphenoxy)ethoxy] pyridine]?
A: average pupal mortality (Ae. albopictus [1]; 6 containers per bay (100 m^3), 100 gravid females, 5 days): 57.1+11.4% and 57.1%; containers to which pyriproxyfen was transferred (contamination rate) (Ae. albopictus [1]; 12 containers tested): 91.7% and 91.6%; pupal mortality of the cups with low mortality (Ae. albopictus [1]; cups in area with human disturbance, low RH, less shade): 0-30% and 10-30%; emergence inhibition (Ae. aegypti adults): 42-98%; pupal mortality ([2]; 31 m^3 room, previous (uniphase) station, 4 oviposition containers with 200 ml water): 81%; smallest reduction in adult emergence among ovicups ([2]; 31.1 m^3 room): 75%; inhibition of adult emergence ([2]; 31.1 m^3 room, 50 gravid females, 5 days, 4 ovicups, powder formulation): 81.25%±2.39; pupal mortality (Ae. albopictus [3]; 24 h post exposure): 96+1.7% and 96.7%; emergence inhibition (Ae. albopictus [3]; up to 8 h post exposure, one mosquito per 250 mL water): 100%; LC50 (Ae. albopictus [4]): 0.012 ppb; containers contaminated with 100% mortality by one gravid female (gravid female): at least 3 containers; LC50 (Aedes aegypti; Aedes aegypti L.): 0.023 ppb; LC50 (Aedes aegypti; reported as low as, Gaugler 2012, Sihuincha 2005): 0.012 ppb; activity relative to temephos (Aedes aegypti; times the activity of temephos): 200 ×; LC50 (Ae. albopictus [5]): 0.012 ppb; inhibition of adult emergence [6]: 100%; inhibition of emergence [7]: 48.33±5.87%; containers contaminated (gravid mosquitoes; different field study, 2012, variable pupal mortality): more than 60%; distance of pyriproxyfen transfer (gravid mosquitoes; field study): 200 m; pupal mortality (gravid mosquitoes; field study, container with 250 ml water at 200 m): 100%; mortality (container mosquitoes): 40-70%; emergence inhibition in each cup (Ae. albopictus [8]; 31 m^3 room, 50 gravid females, 10 oviposition cups): 100%; pupal mortality in each of the 10 oviposition cups (Ae. albopictus [8]; 31.1 m^3 room, 50 gravid mosquitoes, 5 days): 100%; pupal mortality in each of the 10 oviposition cups (Ae. albopictus [8]; second prototype (oil and powder bands on one plate)): 100%
